Experimental data from patent US8334298B2, “Treatment or prevention of ovarian hyperstimulation syndrome (OHSS) using a dopamine agonist” (Ferring International Center S.A., priority 2005, dated 2012).
Several values for one entry are separate records, joined by “and”; a condition that tells them apart may be missing. Identical values can stand only once.

Legend:
OHSS rats = experiment: Dose response of quinagolide on vascular permeability in OHSS rats (Example 4); type: in vivo, Wistar rats; settings: cabergoline 150 ug/kg oral (positive control); single rat; 48-56 h after hCG; listed as Cb
Protocol: Inducing OHSS manifestations. A total of 96 female immature Wistar rats (Harlan Iberica, Sant Feliu de Codina, Barcelona, SPAIN), weighing from 42-48 grams at the beginning of these experiments (day 22), were used to carry out the studies disclosed in Examples 4 and 5. They were injected subcutaneously (s.c) with 10 IU of Pregnant Mare's Serum Gonadotropin (PMSG) (Sigma) for 4 consecutive days (days 22-25), followed by administered intraperitoneally (i.p.) with 30 IU of hCG on the fifth day (day 26) in order to induce OHSS clinical manifestations.
Measuring vascular permeability (VP). VP was used as an index to estimate and compare the degree of development of the illness. VP was measured in all animals 48-56 hours after hCG administration, following methodology previously described (Gomez et al., supra). Briefly, 0.2 ml Evans Blue dye, 0.05 M, was injected through the femoral vein. After 30 minutes, the peritoneal cavity was irrigated with 5 ml saline, pH 6, 22° C., and massaged for 30 seconds to recover extravasated dye. The peritoneal fluid was recovered in 13 ml tubes containing 0.1 ml NaOH. The tubes were centrifuged at 900×g for 12 minutes to avoid protein interference. The supernatant was filtered through 0.22 um filters in order to eliminate ascitic protein/fibrin mucus which could interfere in the posterior measurements. Finally the absorbance of the extravasated dye was measured at 595 nm using a spectrophotometer. Average and average deviations in each group (see below) were calculated. VP was expressed as μg extravasated Evans Blue dye/100 g body weight in each animal.
A total of 70 rats were used for this study. All 70 rats were administered PMSG/hCG to induce OHSS symptoms, as described above. Quinagolide (batch no. 1010003004; supplied by Ferring Labs) was administered to 56 rats. The 56 rats that received quinagolide were used as a dose response test group. […] Cabergoline (Dostinex®) was administered to 6 rats as a positive control. The specific details of the dosing regimen for each group is as follows:
Vehicle control group (quinagolide 0 μg/kg) (n=8). Eight rats were implanted with prolactin placebo pellets, 5 days release, between 10:00 to 11:00 on day 26, just following hCG injection (see General Procedures, above). Six hours after pellet implantation, the rats in this group were orally administered vehicle solution (1:6 alcohol in water mixture) (without quinagolide). They received another oral vehicle administration of vehicle solution 24 hours later. Experimental groups (quinagolide at 0.1, 0.3, 1, 3, 10, 25, 50 μg/kg/day to 7 test groups of rats) (n=8 in each test group). The rats in these groups were implanted with prolactin pellets, 5 days release, between 10:00 to 11:00 on day 26, just following hCG injection (see General Procedures, above). […] In this manner, the desired 0.1, 0.3, 1, 3, 10, 25, 50 μg/kg doses to be assayed were achieved. Twenty four hours later, the rats in this group were administered with another dose of the same amounts of quinagolide. Positive (cabergoline) control group (n=6). These six rats were implanted with prolactin pellets, 5 days release, between 10:00 to 11:00 .m on day 26, just following hCG injection. […] Twenty four hours later, the rats in this group were administered with another dose of the same amount of cabergoline. […] Reconstitution and dilution process to reach appropriate quinagolide doses for oral administration. Appropriate doses were prepared fresh just prior to being administered (on day 26). A single quinagolide vial, containing approximately 2.30-2.30 mg quinagolide, was employed for each single set of animals. For each solution, approximately 2.30-2.30 mg quinagolide was diluted in a vehicle solution (1:6 alcohol:water mixture) to achieve a stock concentration of 100 μg quinagolide per ml solution. […]

[1] = test system: patient with pituitary adenoma and OHSS; settings: cabergoline 0.5 mg twice per week for three weeks; cited from earlier work
[2] = test system: women with PCOS and hyperprolactinemia; settings: during ovarian induction with GnRH agonist, FSH and hCG; cited from earlier work

C=CCN1C[C@H](C(=O)N(CCCN(C)C)C(=O)NCC)C[C@@H]2c3cccc4[nH]cc(c34)C[C@H]21 [Cabergoline, cabergoline]
Absorbance at 595 nm (OHSS rats): 0.356 and 0.034 and 0.1 (2×) and 0.293 | μg EB per 100 g body weight (OHSS rats): 21.56 μg EB per 100 g body weight and 2.118 μg EB per 100 g body weight and 6.507 μg EB per 100 g body weight and 6.229 μg EB per 100 g body weight and 17.99 μg EB per 100 g body weight | μg Evans Blue (Abs * 4360) (OHSS rats): 1552.16 μg and 148.24 μg and 436 μg (2×) and 1277.48 μg | prolactin levels [1]: normalized prolactin levels | risk of OHSS [2]: reduce the risk of OHSS
